According to PMC7006784, “The combination of salvianolic acid A with latamoxef completely protects mice against lethal pneumonia caused by methicillin-resistant Staphylococcus aureus” (Emerging Microbes & Infections, 2020):
Marks after values point to notes of the source that are not given here.

What was measured:
SrtA = biological target: T1, SrtA (Staphylococcus aureus, UniProt Q2FV99); test: Biolayer interferometry assay; format: binding, S. aureus
T1 construct: The gene encoding SrtA (lacking the N-terminal transmembrane domain (N1–59)); made in house
T1 sequence (Q2FV99 60-206): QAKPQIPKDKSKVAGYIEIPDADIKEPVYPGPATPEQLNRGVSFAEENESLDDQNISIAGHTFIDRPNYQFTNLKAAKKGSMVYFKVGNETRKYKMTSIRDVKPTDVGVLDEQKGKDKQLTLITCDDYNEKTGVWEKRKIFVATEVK
Description: The kinetics of the binding of Sal A to SrtA were determined by a biolayer interferometry (BLI) assay using the Octet RED96 system (ForteBio, Inc., Menlo Park, CA) as described previously. Ni-NTA sensors were used to bind the His-tag SrtA protein. The assay buffer used was PBS containing 0.1% bovine serum albumin and 0.02% Tween-20, pH 6.5. Before the assay was performed, the Ni-NTA sensors were pre-wetted in assay buffer for 10 min, and then the Ni-NTA sensors were flushed with buffer for 60 s to generate the baseline. SrtA was immobilized on the surface of the sensor tip by incubating it in […] protein solution for 3600 s. The excess protein was removed by washing the sensor with buffer for 300 s. Subsequently, the sensor was exposed to a cycle of 60 s for the baseline step, 200 s for the association step and 100 s for the dissociation step in different concentrations of Sal A solution (250, 125, 62.5, 31.25 and 15.625 μM). The binding of the sensor to protein without the loading of Sal A served as a control. The data were processed using the double reference subtraction method in Forte Bio analysis software (v6.4).

WT-SrtA = tested on: T2, WT-SrtA; test: Fluorescence quenching assay, WT-SrtA; format: binding, S. aureus
T2 construct: The gene encoding SrtA (lacking the N-terminal transmembrane domain (N1–59)); 6xHis (N); made in house
Description: (§1) The fluorescence quenching assay was performed as previously described. Briefly, purified SrtA and mutant protein were diluted to 500 ng/ml with PBS. A total of 2.5 ml diluted protein solution was mixed with Sal A at different concentrations ranging from 0 to 4.5 μg. After incubation for 10 min, the fluorescence spectra of the mixed solutions were measured using a fluorescence spectrophotometer (RF5301, Japan). For the fluorescence measurement, the excitation and emission slits were set at 5.0 nm, the excitation wavelength was set at 280 nm, and fluorescence emission spectra in the range of 290–500 nm were scanned; the fluorescence intensity at 340 nm was recorded. All assays were performed in triplicate.

A92L-SrtA = tested on: T3, A92L-SrtA; test: Fluorescence quenching assay, A92L-SrtA; format: binding, S. aureus; conditions: fluorescence spectroscopy quenching
T3 construct: The gene encoding SrtA (lacking the N-terminal transmembrane domain (N1–59)); 6xHis (N); made in house
Description: as §1

A104L-SrtA = tested on: T4, A104L-SrtA; test: Fluorescence quenching assay, A104L-SrtA; format: binding, S. aureus; conditions: fluorescence spectroscopy quenching
T4 construct: The gene encoding SrtA (lacking the N-terminal transmembrane domain (N1–59)); 6xHis (N); made in house
Description: as §1

I182A-SrtA = tested on: T5, I182A-SrtA; test: Fluorescence quenching assay, I182A-SrtA; format: binding, S. aureus; conditions: fluorescence spectroscopy quenching
T5 construct: The gene encoding SrtA (lacking the N-terminal transmembrane domain (N1–59)); 6xHis (N); made in house
Description: as §1

R197A-SrtA = tested on: T6, R197A-SrtA; test: Fluorescence quenching assay, R197A-SrtA; format: binding, S. aureus; conditions: fluorescence spectroscopy quenching
T6 construct: The gene encoding SrtA (lacking the N-terminal transmembrane domain (N1–59)); 6xHis (N); made in house
Description: as §1

S. aureus USA300 [1] = test: Pneumonia model, survival; format: in vivo, C57BL/6J mice; conditions: mice, 2 × 10^9 CFU i.n.; s.c. 100 mg/kg Sal A and/or 75 mg/kg latamoxef every 12 h, 96 h; PBS control 10%
Description: The animal experiments were performed using 6- to 8-week-old female C57BL/6J mice obtained from the Experimental Animal Center of Jilin University and conducted according to the guidelines of the Animal Care and Use Committee of Jilin University. The mouse S. aureus pneumonia model was generated as described previously. Briefly, the mice were anaesthetized with ether and inoculated with 30 μl bacterial resuspension via the left nare. The mice were then held upright to allow the bacteria to be inhaled into the lungs. For the survival assessment, groups of 10 mice were challenged with 2 × 10^9 CFU S. aureus. One hour after intranasal inoculation, the mice were subcutaneously injected with 100 mg/kg of Sal A, 75 mg/kg of latamoxef or 100 mg/kg of Sal A plus 75 mg/kg of latamoxef at 12 h intervals, and survival was assessed for 96 h. For the bacterial load, histopathological, and bronchoalveolar lavage fluid (BALF) experiments, mice were inoculated with 1 × 10^9 CFU S. aureus. The mice were then given a subcutaneous injection of 100 mg/kg Sal A, 75 mg/kg latamoxef or a combination of 100 mg/kg Sal A and 75 mg/kg every 12 h. After 24 h, the left lung of each anaesthetized mouse was aseptically excised and homogenized, and the CFU was determined by serial dilutions. […]

S. aureus USA300 [2] = test: Pneumonia model, bacterial load and histopathology of the lungs; format: in vivo, C57BL/6J mice; conditions: mice, 1 × 10^9 CFU i.n., 24 h
Description: The animal experiments were performed using 6- to 8-week-old female C57BL/6J mice obtained from the Experimental Animal Center of Jilin University and conducted according to the guidelines of the Animal Care and Use Committee of Jilin University. The mouse S. aureus pneumonia model was generated as described previously. Briefly, the mice were anaesthetized with ether and inoculated with 30 μl bacterial resuspension via the left nare. The mice were then held upright to allow the bacteria to be inhaled into the lungs. For the survival assessment, groups of 10 mice were challenged with 2 × 10^9 CFU S. aureus. One hour after intranasal inoculation, the mice were subcutaneously injected with 100 mg/kg of Sal A, 75 mg/kg of latamoxef or 100 mg/kg of Sal A plus 75 mg/kg of latamoxef at 12 h intervals, and survival was assessed for 96 h. For the bacterial load, histopathological, and bronchoalveolar lavage fluid (BALF) experiments, mice were inoculated with 1 × 10^9 CFU S. aureus. The mice were then given a subcutaneous injection of 100 mg/kg Sal A, 75 mg/kg latamoxef or a combination of 100 mg/kg Sal A and 75 mg/kg every 12 h. After 24 h, the left lung of each anaesthetized mouse was aseptically excised and homogenized, and the CFU was determined by serial dilutions. The right lungs from each group of mice were excised for histopathological analysis, and the samples were fixed in 10% formalin and stained with haematoxylin and eosin (H&E).

TNF-α, IL-6, IL-1β = test: Pneumonia model, cytokines in BALF (ELISA); format: in vivo, C57BL/6J mice; conditions: mice, 1 × 10^9 CFU i.n.; 100 mg/kg s.c.; 24 h after infection
Description: For the determinations of the levels of TNF-α, IL-6, IL-1β, 24 h after inoculation with bacteria, the lungs of anaesthetized mice were lavaged with a tracheal cannula according to a procedure described previously. The lavage samples were centrifuged for 10 min at 500 × g and 4°C. The supernatant was collected, and the amounts of cytokines were quantified using commercial enzyme-linked immunosorbent assay (ELISA) kits (eBioscience, San Diego, CA) according to the manufacturer’s protocols. All animal experiments were replicated at least twice, with essentially identical results.

O=C(/C=C/c1ccc(O)c(O)c1/C=C/c1ccc(O)c(O)c1)O[C@H](Cc1ccc(O)c(O)c1)C(=O)O [Sal A, (2R)-3-(3,4-Dihydroxyphenyl)-2-[(E)-3-[2-[(E)-2-(3,4-dihydroxyphenyl)ethenyl]-3,4-dihydroxyphenyl]prop-2-enoyl]oxypropanoic acid]
koff (SrtA): 0.0138 s⁻¹
kon (SrtA): 582 M⁻¹ s⁻¹
KA (WT-SrtA; fluorescence quenching, WT SrtA): 58000 L/mol
KA (WT-SrtA; fluorescence spectroscopy quenching, WT-SrtA): 5.8 (1 × 10^4) l/mol
KA (A92L-SrtA): 3.78 (1 × 10^4) l/mol
KA (A104L-SrtA): 2.62 (1 × 10^4) l/mol
KA (I182A-SrtA): 1.03 (1 × 10^4) l/mol
KA (R197A-SrtA): 2.22 (1 × 10^4) l/mol
survival rate (S. aureus USA300 [1]): 80%
viable MRSA loads in the lungs in comparison with the control (S. aureus USA300 [2]; s.c. 100 mg/kg Sal A and/or 75 mg/kg latamoxef every 12 h): significantly decreased
pulmonary inflammation (histopathology of the lungs) (S. aureus USA300 [2]; s.c. 100 mg/kg Sal A and/or 75 mg/kg latamoxef, H&E): alleviated
levels of TNF-α, IL-6, and IL-1β in the BALF compared with the control group (TNF-α, IL-6, IL-1β): significantly downregulated
